# Measured values as given in the supplement of paper PMC10307832.
# Legend:
# Experiment in all cases: relative viability (nuclei count vs DMSO), 5 days (fraction); higher = more cells survive
# Fedratinib + OSI-027 = compound: Cc1cnc(Nc2ccc(OCCN3CCCC3)cc2)nc1Nc1cccc(S(=O)(=O)NC(C)(C)C)c1 [Fedratinib] + COc1cccc2cc(-c3nc([C@H]4CC[C@H](C(=O)O)CC4)n4ncnc(N)c34)[nH]c12 [OSI-027] (partner 0.5 µM)
# Outline: (§1)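 Five library-drug doses in √10 steps were combined with a fixed anchor-drug dose, or a single drug was given alone, by pin tool to lung cancer cell lines in 1536-well plates the day after seeding. Nuclei were stained and counted after 5 days. Relative viability is the nuclei count in treated wells over that in vehicle wells, taken as the median of duplicate plates.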
# Fedratinib + Olaparib = compound: Cc1cnc(Nc2ccc(OCCN3CCCC3)cc2)nc1Nc1cccc(S(=O)(=O)NC(C)(C)C)c1 [Fedratinib] + O=C(c1cc(Cc2n[nH]c(=O)c3ccccc23)ccc1F)N1CCN(C(=O)C2CC2)CC1 [Olaparib] (partner 8 µM)
# Outline: as §1
# Fedratinib + Decitabine = compound: Cc1cnc(Nc2ccc(OCCN3CCCC3)cc2)nc1Nc1cccc(S(=O)(=O)NC(C)(C)C)c1 [Fedratinib] + Nc1ncn([C@H]2C[C@H](O)[C@@H](CO)O2)c(=O)n1 [Decitabine] (partner 2 µM)
# Outline: as §1
# GW-2580 + Pemetrexed = compound: COC1=CC=C(C=C1)COC2=C(C=C(C=C2)CC3=CN=C(N=C3N)N)OC [GW-2580] + Nc1nc2[nH]cc(CCc3ccc(C(=O)N[C@@H](CCC(=O)O)C(=O)O)cc3)c2c(=O)[nH]1 [Pemetrexed] (partner 0.2 µM)
# Outline: as §1
# Fedratinib + Crizotinib = compound: Cc1cnc(Nc2ccc(OCCN3CCCC3)cc2)nc1Nc1cccc(S(=O)(=O)NC(C)(C)C)c1 [Fedratinib] + C[C@@H](Oc1cc(-c2cnn(C3CCNCC3)c2)cnc1N)c1c(Cl)ccc(F)c1Cl [Crizotinib] (partner 1 µM)
# Outline: as §1
# Fedratinib + Navitoclax = compound: Cc1cnc(Nc2ccc(OCCN3CCCC3)cc2)nc1Nc1cccc(S(=O)(=O)NC(C)(C)C)c1 [Fedratinib] + CC1(C)CCC(c2ccc(Cl)cc2)=C(CN2CCN(c3ccc(C(=O)NS(=O)(=O)c4ccc(N[C@H](CCN5CCOCC5)CSc5ccccc5)c(S(=O)(=O)C(F)(F)F)c4)cc3)CC2)C1 [Navitoclax] (partner 0.5 µM)
# Outline: as §1
Cell Line,relative viability (Fedratinib + OSI-027; first compound 0.1 µM),relative viability (Fedratinib + OSI-027; first compound 0.3162 µM),relative viability (Fedratinib + OSI-027; first compound 1 µM),relative viability (Fedratinib + Olaparib; first compound 0.1 µM),relative viability (Fedratinib + Olaparib; first compound 0.3162 µM),relative viability (Fedratinib + Olaparib; first compound 1 µM),relative viability (Fedratinib + Decitabine; first compound 0.1 µM),relative viability (Fedratinib + Decitabine; first compound 0.3162 µM),relative viability (Fedratinib + Decitabine; first compound 1 µM),relative viability (GW-2580 + Pemetrexed; first compound 0.08 µM),relative viability (GW-2580 + Pemetrexed; first compound 0.8 µM),relative viability (GW-2580 + Pemetrexed; first compound 2.53 µM),relative viability (GW-2580 + Pemetrexed; first compound 8 µM),relative viability (Fedratinib + Crizotinib; first compound 0.1 µM),relative viability (Fedratinib + Crizotinib; first compound 0.3162 µM),relative viability (Fedratinib + Crizotinib; first compound 1 µM),relative viability (Fedratinib + Navitoclax; first compound 0.1 µM),relative viability (Fedratinib + Navitoclax; first compound 0.3162 µM),relative viability (Fedratinib + Navitoclax; first compound 1 µM)
HCC-44,0.482,0.544,0.362,0.928,0.945,0.964,0.929,0.947,0.949,0.727,0.638,0.649,0.666,0.797,0.756,0.85,0.914,0.874,1.04
HCC-827,0.817,0.812,0.915,0.606,0.528,0.749,0.292,0.336,0.318,0.242,0.259,0.236,0.276,0.985,0.963,0.953,0.949,1.01,1.06
NCI-H2347,0.292,0.428,0.497,0.551,0.58,0.596,0.637,0.631,0.647,0.468,0.473,0.464,0.446,0.721,0.667,0.679,0.675,0.823,0.733
PC-14,0.746,0.88,0.633,0.371,0.324,0.309,0.193,0.23,0.094,0.14,0.136,0.137,0.127,0.926,0.874,0.92,1.16,1.08,0.989
NCI-H1651,0.707,0.653,0.62,0.173,0.169,0.169,0.365,0.629,0.618,0.605,0.711,0.578,0.45,0.931,0.875,0.808,0.914,0.958,1.07
HARA,0.494,0.575,0.291,0.785,0.826,0.557,0.485,0.551,0.427,0.289,0.254,0.29,0.299,1.16,1.04,1.05,1.17,1.12,1.15
NCI-H1650,–,0.69,0.515,0.835,0.726,0.674,0.454,0.349,0.399,0.468,0.391,0.418,0.371,0.706,0.926,0.888,1.25,1.12,1.15
LU99A,0.254,0.328,0.272,0.262,0.264,0.231,0.936,0.968,0.892,0.246,0.176,0.193,0.17,0.427,0.618,0.509,0.824,0.834,0.666
NCI-H1355,0.323,0.437,0.258,0.771,0.817,0.699,0.344,0.353,0.356,1.09,1.13,0.914,0.965,1.06,1.04,1.07,0.796,0.973,0.949
HCC-78,0.366,0.381,0.362,0.847,0.87,0.827,0.693,0.73,0.705,0.972,0.939,0.909,0.948,0.346,–,0.305,0.676,–,0.834
HCC-15,0.499,0.705,0.576,0.732,0.676,0.806,0.507,0.738,0.533,0.228,0.235,0.235,0.251,0.839,0.762,0.71,0.654,0.635,0.487
EKVX,0.702,0.745,0.758,0.969,0.811,0.853,0.315,0.37,0.363,0.434,0.392,0.355,0.358,1.05,0.889,0.958,1.08,0.918,0.944
NCI-H2087,0.486,0.453,0.425,0.534,0.49,0.425,0.206,0.242,0.219,0.68,0.713,0.7,0.625,0.735,0.879,0.831,0.928,0.962,1
LK-2,0.157,0.184,0.16,0.611,0.624,0.698,0.275,0.269,0.352,0.287,0.283,0.245,0.295,–,0.187,0.214,0.831,1.34,0.777
NCI-H1437,0.911,0.924,0.825,0.627,0.645,0.598,0.603,0.583,0.6,0.297,0.307,0.299,0.273,0.999,0.883,0.922,1.14,1.02,0.988
COR-L23,0.741,0.714,0.596,0.326,0.381,0.302,0.4,0.416,0.177,0.197,0.196,0.205,0.194,0.55,0.526,0.486,0.936,1.06,0.899

Cell Line,relative viability (Fedratinib + OSI-027; first compound 0.1 µM),relative viability (Fedratinib + OSI-027; first compound 0.3162 µM),relative viability (Fedratinib + OSI-027; first compound 1 µM),relative viability (Fedratinib + Olaparib; first compound 0.1 µM),relative viability (Fedratinib + Olaparib; first compound 0.3162 µM),relative viability (Fedratinib + Olaparib; first compound 1 µM),relative viability (Fedratinib + Decitabine; first compound 0.1 µM),relative viability (Fedratinib + Decitabine; first compound 0.3162 µM),relative viability (Fedratinib + Decitabine; first compound 1 µM),relative viability (GW-2580 + Pemetrexed; first compound 0.08 µM),relative viability (GW-2580 + Pemetrexed; first compound 0.8 µM),relative viability (GW-2580 + Pemetrexed; first compound 2.53 µM),relative viability (GW-2580 + Pemetrexed; first compound 8 µM),relative viability (Fedratinib + Crizotinib; first compound 0.1 µM),relative viability (Fedratinib + Crizotinib; first compound 0.3162 µM),relative viability (Fedratinib + Crizotinib; first compound 1 µM),relative viability (Fedratinib + Navitoclax; first compound 0.1 µM),relative viability (Fedratinib + Navitoclax; first compound 0.3162 µM),relative viability (Fedratinib + Navitoclax; first compound 1 µM)
NCI-H838,0.31,0.471,0.259,0.677,0.837,0.6,0.444,0.454,0.431,0.268,0.262,0.234,0.266,0.669,0.847,0.745,1.11,1.17,1.06
A-427,0.444,0.498,0.118,0.648,0.708,0.716,0.596,0.561,0.524,0.936,1.19,0.842,0.76,0.802,0.755,0.686,0.973,0.905,0.933
NCI-H1792,0.607,0.808,0.748,0.599,0.402,0.282,0.429,0.438,0.504,0.843,0.773,0.688,0.644,1.26,0.972,0.854,0.653,0.58,0.59
LCLC-97TM1,0.715,0.504,0.452,0.588,0.386,0.428,0.273,0.255,0.214,0.158,0.143,0.179,0.172,0.353,0.24,0.334,0.275,0.394,0.412
PC-3 [JPC-3],0.776,0.801,0.764,1.01,1.09,1.01,0.717,0.827,0.75,0.908,1.39,0.861,0.658,0.998,0.944,0.985,0.856,0.804,0.782
BEN,0.267,0.297,0.27,1.07,1.01,0.972,0.582,0.693,0.608,1.91,0.762,0.615,0.702,0.716,0.91,0.784,0.0815,0.055,0.0392
NCI-H1666,0.837,0.793,0.898,0.792,0.751,0.747,0.638,0.746,0.7,0.863,0.91,0.901,0.787,1.03,0.994,0.843,0.877,0.96,0.946
LC-2-ad,0.854,0.94,0.609,0.709,0.701,0.724,0.902,0.776,0.741,0.268,0.285,0.253,0.278,0.474,0.444,0.446,0.436,0.45,0.3
SK-LU-1,0.307,0.35,0.289,0.407,0.361,0.341,0.614,0.599,0.615,1.09,1.05,0.878,0.996,–,0.836,0.584,–,0.917,0.611
ChaGo-K-1,0.431,0.577,0.504,0.469,0.402,0.391,0.488,0.513,0.544,0.274,0.256,0.267,0.262,0.851,1.06,0.975,0.786,1.11,0.425
COR-L 105,0.633,0.649,0.497,0.669,0.693,0.708,0.669,0.611,0.511,1.26,1.08,1.21,0.962,0.539,0.686,0.391,0.568,0.657,0.689
NCI-H1975,0.729,0.833,0.602,0.814,0.841,0.613,0.372,0.315,0.343,0.311,0.309,0.323,0.309,0.802,0.928,0.663,1.08,1.01,0.953
NCI-H1993,0.519,0.522,0.524,0.949,1.01,0.839,0.473,0.725,0.704,0.601,0.703,0.54,0.576,0.747,0.773,0.848,0.75,0.869,0.903
RERF-LC-KJ,0.533,0.602,0.48,0.895,0.847,0.805,0.64,0.635,0.277,0.491,0.44,0.504,0.523,0.834,0.883,0.786,0.913,0.948,1.07
NCI-H23,0.579,0.654,0.525,0.286,0.3,0.289,0.322,0.338,0.324,0.581,0.869,0.777,0.492,0.305,0.475,0.41,0.87,0.75,0.73
